Data set [1] concerns the target T1, Recombinant unphosphorylated c-Met comprising residues 1038-1346 (Homo sapiens, UniProt P08581).
T1 construct: The DNA fragment encoding the kinase domain (1038-1346) was inserted into Novagen vector pet28a; His6 (N); made in house; host or cells: E. coli BL21(DE3)RIL
In words: c-Met 33P assay. The class given is biochemical. Conditions: 15 minutes preincubation, 100 μM ATP, IGF-1Rtide substrate, read-out: c-Met, p33 assay. An excerpt:
cDNA of full-length c-Met purchased from Origen Technologies was used as template for PCR amplification. The DNA fragment encoding the kinase domain (1038-1346) was inserted into Novagen vector pet28a between Nco1 and Sal1 sites. The primers were designed to contain a six-histidine tag to the N-terminus. In order to express dephosphorylated c-Met kinase protein, a tyrosine phosphatase PTP1B (1-283) was sequentially ligated into the made construct between Sal1 and NotI sites. A second ribosome binding site was incorporated in the PTP1B primer after the Sal1 site. The N-terminal His-tagged proteins were expressed in Circlegrow broth (Q-Biogen). The transformed E. coli cell line BL21(DE3)RIL (Stratagene) was cultured to OD=0.8 at 37° C. and induced with 0.3 mM of IPTG for overnight at 12° C. The co-expressed protein was purified by metal-chelation chromatography followed by anion and cation columns. In brief, 4 liters of cells were lysed by sonication in 140 ml buffer containing 20 mM MOPS pH=6.5, 200 mM NaCl, 7.5% glycerol, 0.1% Igepal, supplied with 1 mM PMSF. The supernatant was obtained by centrifugation at 50,000 g for 30 minutes and followed by incubation with 8 mL of Ni-NTA His Bind resin (Novagen) at 4° C. for one hour. A second step 50 mL wash buffer (with 100 mM NaCl and 5 mM imidazole) was applied after initial wash with the lysis buffer. Protein was eluted by 200 mM imidazole pH=8.5, 100 mM NaCl and 7.5% glycerol and directly cleared by passing 10 mL QFF column. The salt concentration and the pH value of the protein flow through were adjusted to 50 mM and 7.5 by dilution, and then loaded to 1 mL SP FF column. The protein was further gel-filtered in an equilibrium buffer of 20 mM TrisHCl pH=8.5, 150 mM NaCl, 7.5% glycerol and 2 mM DTT. The monomeric unphosphorylated c-Met protein was concentrated to 30 mg/mL for storage at −80° C.
Recombinant unphosphorylated c-Met comprising residues 1038-1346 (12.5 ng) was pre-incubated with increasing concentrations of compounds for 15 minutes at room temperature. Following preincubation with compounds, 100 μM of IGF-1Rtide substrate and 100 μM ATP containing 2.5 μCi [^33P-γATP] was added to the mixture. The reaction was carried out for 30 minutes in a Reaction Buffer containing 8 mM MOPS-NaOH pH=7.0, 200 μM EDTA, 5 mM Magnesium acetate, 200 μM dithiothreitol (DTT) and 10 mM Na3VO4. The reaction was then terminated with 10 μL of 3% phosphoric acid. Ten μL were transferred onto a filterplate and were washed 3-times with 1% phosphoric acid; counts were read with a microbeta counter, and IC50 for c-Met inhibition was determined for each compound.

For data set [2], the system named is HT29 cells. The experiment in a line: MTS assay. The class given is cell-based. The following applies: then 48 hours drug-free medium, MTS readout. As for the experimental part: HT29 cells were seeded in 96-well plates at 1,800 cells/well overnight in medium with 10% FBS. The next day, cells were treated with increasing concentrations of compounds for 24 hours at 37° C. After the treatments, the compound-containing medium was removed, cells were washed twice with PBS, and incubated in drug-free medium containing 10% FBS for an additional 48 hours. After addition of MTS and PMS for 4 hours at concentrations of 2 mg/mL and 0.92 mg/mL, respectively, the results were quantitated by spectrophotometry at λ=490 nm and IC50 for each compound was determined.
In general terms: Formazan colour is commonly taken as a measure of viable cells.

Data set [3] concerns HT29 cells. In words: Annexin V-Fluos cell death high content imaging after met siRNA transfection. The following applies: increased concentrations of caspase inhibitor for 1 additional day after transfection. The class given is cell-based. The protocol: Exponentially growing HT29 cells were plated in black 96-well plates at 5,000 cells/well overnight in medium with 10% FBS. The next day, cells were transiently transfected for 2 days using DharmaFECT 4 reagent with a pool of four met-specific 21-nucleotide RNA oligonucleotides forming a 19-bp duplex core with 2-nucleotide 3′ overhang in combination (Dharmacon, Inc., Lafayette, Colo.). Transfection of gapdh siRNA (Dharmacon, Inc.) and of a non-targeting siRNA under the same conditions was done in parallel as controls (Dharmacon, Inc.). Cells were then incubated in the absence or the presence of increasing concentrations of ZvAD-FMK, an irreversible caspase inhibitor for 1 additional day. Cells were incubated for at least 10 minutes in a labeling solution (10 mM HEPES, 140 mM NaCl and 6 mM CaCl2) containing […] Hoescht 33342 (blue channel; Molecular Probes/Invitrogen Corp., Natick, Mass.), 500 times diluted Annexin V-Fluos (green channel; Roche Applied Science, Indianapolis, Ind.) and 1 μg/ml propidium iodide (red channel; Roche Applied Science). High content image acquisition and analysis were carried out using a Beckman Coulter IC100 Cytometer. The program was set to take four images per well. […] Images were processed and numbers of positive cells for each channel and each condition were determined using Cytoshop 2.1 software (Beckman Coulter, Inc.). […]

The mark [4] stands for this setting: 24 hours treatment, read-out: HT-29, IC50.
The mark [5] stands for this setting: Homo sapiens, HT-29, 24 hours treatment.

Counter-ions that a name gives are not always drawn. Like-named read-outs stand apart in the source and are kept apart here. Where a SMILES comes first, the peptide text is derived from it. The star is where a group is joined. Cbz = O=C(OCc1ccccc1)*; CH2F = FC*

One may read the melting point as the temperature, or range, at which the solid turns liquid.

T1 sequence (P08581 1038-1346): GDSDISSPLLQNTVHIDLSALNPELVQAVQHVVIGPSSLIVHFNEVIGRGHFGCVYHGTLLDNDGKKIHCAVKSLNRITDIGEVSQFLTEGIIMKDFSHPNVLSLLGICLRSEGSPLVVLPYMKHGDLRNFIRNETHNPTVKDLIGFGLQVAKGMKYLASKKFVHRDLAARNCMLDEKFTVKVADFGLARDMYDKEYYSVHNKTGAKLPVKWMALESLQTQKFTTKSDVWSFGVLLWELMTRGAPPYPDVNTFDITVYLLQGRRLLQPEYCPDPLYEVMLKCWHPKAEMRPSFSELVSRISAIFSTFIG

As for “(3R,4R)-4-(5,6-dihydro-4H-pyrrolo[3,2,1-ij]quinolin-1-yl)-3-(1H-indol-3-yl)-pyrrolidin-2-one and (3R,4R)-3-(5,6-dihydro-4H-pyrrolo[3,2,1-ij]quinolin-1-yl)-4-(1H-indol-3-yl)-pyrrolidin-2-one (1/1 mixture) [Example 3]”, the values for the IC50 (in data set [1]; in the data set on HT29 cells [2] (setting [4])) were at least 10 µM and at most 1 µM, respectively.
In turn, `O=S(=O)(c1ccccc1)N1C[C@@H](c2c[nH]c3ccccc23)[C@H](c2cn3c4c(cccc24)CCC3)C1` [Example 9, 1-[(3R,4R)-1-benzenesulfonyl-4-(1H-indol-3-yl)-pyrrolidin-3-yl]-5,6-dihydro-4H-pyrrolo[3,2,1-ij]quinoline] registered a melting point of 115 to 125 °C. Further, the IC50 in data set [1] was at least 10 µM. Further, in the data set with HT29 cells [2] (setting [5]), the IC50 was at least 10 µM.
Consider `CC(C)S(=O)(=O)N1C[C@@H](c2c[nH]c3ccccc23)[C@H](c2cn3c4c(cccc24)CCC3)C1` [Example 10, 1-[(3R,4R)-4-(1H-indol-3-yl)-1-(propane-2-sulfonyl)-pyrrolidin-3-yl]-5,6-dihydro-4H-pyrrolo[3,2,1-ij]quinoline], for which the melting point lay within 100 to 115 °C. Besides, the IC50 in data set [1] was at least 10 µM. The molecule also returned an IC50 in the data set with HT29 cells [2] (setting [5]) of at least 10 µM.
`CC(C)(C)CC(=O)N1C[C@@H](c2c[nH]c3ccccc23)[C@H](c2cn3c4c(cccc24)CCC3)C1` [Example 12, 1-[(3R,4R)-3-(5,6-dihydro-4H-pyrrolo[3,2,1-ij]quinolin-1-yl)-4-(1H-indol-3-yl)-pyrrolidin-1-yl]-3,3-dimethyl-butan-1-one] showed a melting point of 202 to 204 °C. In data set [1], the IC50 was at least 10 µM. Further, the IC50 in the data set with HT29 cells [2] (setting [5]) is at least 10 µM.
Regarding `COC(=O)C[C@H](NC(=O)[C@H](C)NC(=O)[C@@H](NC(=O)OCc1ccccc1)C(C)C)C(=O)CF` [ZvAD-FMK] (Cbz-Val-Ala-Asp(OMe)-CH2F), in the data set with HT29 cells [3], the “levels of cell death in met siRNA transfected cells” value is recorded as “decreased the levels of cell death”.
Take `O=C(C1CCC1)N1C[C@@H](c2c[nH]c3ccccc23)[C@H](c2cn3c4c(cccc24)CCC3)C1` [Example 11, cyclobutyl-[(3R,4R)-3-(5,6-dihydro-4H-pyrrolo[3,2,1-ij]quinolin-1-yl)-4-(1H-indol-3-yl)-pyrrolidin-1-yl]-methanone]: the melting point lay within 253 to 255 °C. Besides, the IC50 in data set [1] was at least 10 µM. In addition, in the data set on HT29 cells [2] (setting [5]), the IC50 was at least 10 µM.
In the case of “(3R,4R)-4-(5,6-dihydro-4H-pyrrolo[3,2,1-ij]quinolin-1-yl)-3-(1H-indol-3-yl)-5-thioxo-pyrrolidin-2-one and (3R,4R)-3-(5,6-dihydro-4H-pyrrolo[3,2,1-ij]quinolin-1-yl)-4-(1H-indol-3-yl)-5-thioxo-pyrrolidin-2-one (1/1 mixture) [Example 2]”, the IC50 (in data set [1]; in the data set with HT29 cells [2] (setting [4])) was at most 1 µM in each case.
For the molecule `c1ccc2c([C@@H]3CNC[C@H]3c3cn4c5c(cccc35)CCC4)c[nH]c2c1` (as salt: HCl) [Example 7, 1-[(3R,4R)-4-(1H-indol-3-yl)-pyrrolidin-3-yl]-5,6-dihydro-4H-pyrrolo[3,2,1-ij]quinoline], the melting point is 239 to 240 °C.
`O=C1NCC(c2cn3c4c(cccc24)CCC3)C1c1c[nH]c2ccccc12` (mixture of isomers) [Example 1, 4-(5,6-dihydro-4H-pyrrolo[3,2,1-ij]quinolin-1-yl)-3-(1H-indol-3-yl)-pyrrolidin-2-one] yielded a melting point of 260 to 262 °C. For the same molecule, in data set [1], the IC50 was at least 10 µM. This molecule displayed an IC50 with HT29 cells [2] (setting [5]) of at most 1 µM.
On to `c1ccc2c([C@@H]3CNC[C@H]3c3cn4c5c(cccc35)CCC4)c[nH]c2c1` [Example 7, 1-[(3R,4R)-4-(1H-indol-3-yl)-pyrrolidin-3-yl]-5,6-dihydro-4H-pyrrolo[3,2,1-ij]quinoline], for which the IC50 in data set [1] was at least 10 µM; in the data set with HT29 cells [2] (setting [5]), at most 1 µM.
Regarding `CCNC(=O)N1C[C@@H](c2c[nH]c3ccccc23)[C@H](c2cn3c4c(cccc24)CCC3)C1` [Example 8, (3R,4R)-3-(5,6-dihydro-4H-pyrrolo[3,2,1-ij]quinolin-1-yl)-4-(1H-indol-3-yl)-pyrrolidine-1-carboxylic acid ethylamide], the melting point lay within 278 to 279 °C. Besides, the IC50 in data set [1] was at least 10 µM. The molecule also came in with an IC50 in the data set on HT29 cells [2] (setting [5]) of at least 10 µM.
For `O=C1NC[C@@H](c2c[nH]c3ccccc23)[C@@H]1c1cn2c3c(cccc13)CCC2` (racemic) [Example 4, (±)-trans-3-(5,6-dihydro-4H-pyrrolo[3,2,1-ij]quinolin-1-yl)-4-(1H-indol-3-yl)-pyrrolidin-2-one], the melting point lay in the range of 241 to 243 °C. For the same molecule, the IC50 in data set [1] lay in the range of 1 to 10 µM. This molecule displayed an IC50 with HT29 cells [2] (setting [5]) of at most 1 µM.
In the case of `COc1cccc([C@@H]2CNC(=O)[C@H]2c2cn3c4c(cccc24)CCC3)c1` (racemic) [Example 6, (±)-trans-3-(5,6-Dihydro-4H-pyrrolo[3,2,1-ij]quinolin-1-yl)-4-(3-methoxy-phenyl)-pyrrolidin-2-one], the melting point lay in the range of 191 to 194 °C. Besides, in the data set with HT29 cells [2] (setting [5]), the IC50 is at least 10 µM.
Taken in the same sequence, the figures for `O=C1NC[C@@H](c2cccc(C(F)(F)F)c2)[C@@H]1c1cn2c3c(cccc13)CCC2` (racemic) [Example 5, (±)-trans-3-(5,6-Dihydro-4H-pyrrolo[3,2,1-ij]quinolin-1-yl)-4-(3-trifluoromethyl-phenyl)-pyrrolidin-2-one] were 82 to 85 °C and at least 10 µM.

The record behind these values is patent US8304425B2, “Pyrrolidinone, pyrrolidine-2,5-dione, pyrrolidine and thiosuccinimide derivatives, compositions and methods for treatment of cancer” (ArQule, Inc., priority 2007, dated 2012).
